Molecules are shown by their SMILES.

In one series the test system is K562 cells. The series is described as follows: Inhibitory effect of compounds on proliferation of K562 cells (CCK-8). In kind it is cell-based. The note with it: Homo sapiens, 72 h with compound, CCK-8, 5% serum. The protocol: K562 cells in logarithmic growth phase and good cell condition were added to a centrifuge tube and centrifuged at 1000 rpm for 5 min in a low speed centrifuge. […] The cells were seeded on a 96-well plate at 100 µL/well using a multi-channel pipette and cultured in a cell incubator at 37° ° C. 5% CO2 and saturated humidity. […] Inhibition rate (%)=(mean value of negative control group−mean value of experimental group)/(mean value of negative control group−mean value of blank group)×100%. A dose-response curve was fitted by four-parameter analysis, with the logarithm of compound concentration serving as abscissa and inhibition rate serving as ordinate, such that IC50 was calculated.

Series [1] addresses T1, Ba/F3-BCR-ABL1-T315I-C3 cells (Homo sapiens, UniProt P00519, T315I, cells depend on it).
T1 construct: fused on or other part: P11274 (Breakpoint cluster region protein)
The series is described as follows: Inhibitory effect of compounds on proliferation of BCR-ABL T315I-transfected Ba/F3 cells (CCK-8). The format is cell-based. The settings on record: 72 h with compound, CCK-8, 5% serum, read-out: IC50 (nM) Ba/F3-BCR-ABL1 T315I. As for the experimental part: Ba/F3-BCR-ABL1-T315I-C3 cells in logarithmic growth phase and good cell condition were added to a centrifuge tube and centrifuged at 1000 rpm for 5 min in a low speed centrifuge. The supernatant was discarded, and 5 mL of complete medium (RPMI 1640 basic medium+10% FBS) was added using a pipette for cell resuspension. The cells were counted using a cell counter, diluted with complete medium to a cell density of 6×10^4 cells/mL, and an equivalent amount of RPMI 1640 basic medium was added to adjust the serum concentration to 5% and the cell density to 3×10^4 cells/mL for plate seeding. The cells were seeded on a 96-well plate at 100 μL/well using a multi-channel pipette and cultured in a cell incubator at 37° C. 5% CO2 and saturated humidity. After 24 h incubation, compounds were loaded using a nanoliter pipettor, 8 concentrations (1000 nM, 250 nM, 63 nM, 16 nM, 3.9 nM, 0.98 nM, 0.24 nM, 0.061 nM) were set for each compound, and 2 replicate wells were set for each concentration; cells with no compounds added were taken as a negative control, and a plating medium with no cells added was taken as a blank control. After 72 h. […] Inhibition rate (%)=(mean value of negative control group−mean value of experimental group)/(mean value of negative control group−mean value of blank group)×100%. A dose-response curve was fitted by four-parameter analysis, with the logarithm of compound concentration serving as abscissa and inhibition rate serving as ordinate, such that ICso was calculated.

The nature of series [2]: Evaluation of pharmacokinetics in mice. In kind it is in vivo. The note with it: mouse, plasma, po, ICR mice; for bioavailability: ig 10 mg/kg, (intragastric AUC×intravenous dosage)/(intravenous AUC×intragastric dosage)×100%, read-out: Fabs(%) absolute bioavailability; for Cmax / Tmax / half-life / AUC(0-t) / MRT last: ig, 10 mg/kg; for AUC(0-t): read-out: AUC(0-24); for MRT last: read-out: MRT(0-24). The protocol:
ICR mice (purchased from Shanghai Sippe-Bk Lab Animal Co., Ltd.) of 18-22 g were randomized into groups of 9 after 3-5 days of acclimatization and administered with the compounds at a dose of 10 mg/kg by intragastric administration. The animals to be tested (ICR mice) were fasted overnight before administration and food was provided 4 h after administration, and water was freely drunk before and after the experiment and during the experiment. After intragastric administration, about 0.1 mL of blood was collected from the orbit at 0.25 (15 min), 0.5 (30 min), 1, 2, 3, 4, 6, 8, 10, and 24 h (Each mouse was subjected to blood collection at 3-4 time points, with three mice per time point). The blood samples were mixed with EDTA-K2 anticoagulant, transferred to a centrifuge within 30 min, and then centrifuged at 4000 rpm for 10 min at 4° C. to separate the plasma. All the plasma samples were collected and immediately stored at −20° C. for testing.
300 μL of acetonitrile solution containing an internal standard (20 ng/ml diazepam) was added to 30 μL of the plasma sample and standard curve sample. The mixture was shaken and mixed well for 5 min, and centrifuged at 13.000 rpm for 10 min. 70 μL of supernatant was taken and diluted with 70 μL of ultrapure water. After being mixed well, 1 μL of the resulting sample was subjected to LC/MS/MS, and a chromatogram was recorded.
Oral exposure of the compounds was evaluated by in vivo pharmacokinetic experiments in mice. The relevant pharmacokinetic parameters were fitted by using DAS3.2.5 software, where absolute bioavailability Fabs(%)=(intragastric AUC×intravenous dosage)/(intravenous AUC×intragastric dosage)×100%.

For the next series, the target named is T2, hERG potassium channel (Homo sapiens, UniProt Q12809).
T2 construct: expressed in transfected cells; host or cells: HEK-293 cells, stably transformed
T2 sequence (Q12809 whole entry): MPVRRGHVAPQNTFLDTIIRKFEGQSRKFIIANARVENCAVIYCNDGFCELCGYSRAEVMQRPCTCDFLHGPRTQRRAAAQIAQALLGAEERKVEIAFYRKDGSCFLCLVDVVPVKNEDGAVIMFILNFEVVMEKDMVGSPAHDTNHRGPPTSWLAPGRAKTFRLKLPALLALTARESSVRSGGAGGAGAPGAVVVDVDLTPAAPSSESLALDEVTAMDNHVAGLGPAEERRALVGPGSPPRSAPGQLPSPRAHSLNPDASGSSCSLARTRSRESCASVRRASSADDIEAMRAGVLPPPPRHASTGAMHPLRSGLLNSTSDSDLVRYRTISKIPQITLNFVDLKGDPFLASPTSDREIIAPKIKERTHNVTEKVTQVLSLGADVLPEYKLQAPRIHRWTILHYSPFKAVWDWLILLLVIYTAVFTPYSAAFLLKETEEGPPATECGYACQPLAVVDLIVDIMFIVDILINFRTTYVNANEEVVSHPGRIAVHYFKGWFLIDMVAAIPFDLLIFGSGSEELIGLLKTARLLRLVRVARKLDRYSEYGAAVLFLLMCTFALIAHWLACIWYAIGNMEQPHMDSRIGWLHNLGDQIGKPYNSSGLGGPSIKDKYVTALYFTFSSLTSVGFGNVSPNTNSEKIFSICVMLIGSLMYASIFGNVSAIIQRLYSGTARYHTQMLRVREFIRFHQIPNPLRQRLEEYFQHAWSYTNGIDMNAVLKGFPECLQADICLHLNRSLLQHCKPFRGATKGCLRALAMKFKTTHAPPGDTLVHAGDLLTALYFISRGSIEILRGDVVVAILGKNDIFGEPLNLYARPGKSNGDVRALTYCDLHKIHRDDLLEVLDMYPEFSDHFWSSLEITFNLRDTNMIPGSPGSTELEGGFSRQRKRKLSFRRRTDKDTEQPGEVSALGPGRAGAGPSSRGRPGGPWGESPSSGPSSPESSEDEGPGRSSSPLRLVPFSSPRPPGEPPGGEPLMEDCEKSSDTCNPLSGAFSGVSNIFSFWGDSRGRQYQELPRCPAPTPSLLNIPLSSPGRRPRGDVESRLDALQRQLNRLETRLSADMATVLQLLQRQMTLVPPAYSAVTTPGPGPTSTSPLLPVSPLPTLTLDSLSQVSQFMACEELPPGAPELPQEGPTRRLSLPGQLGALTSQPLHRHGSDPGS
The series is described as follows: Evaluation of cardiac safety: hERG potassium channel whole-cell patch clamp in HEK-293 cells. The format is cell-based. The settings on record: HEK-293 cells over-expressing hERG potassium channel, tail current, room temperature. The protocol: The cell strains were derived from HEK-293 cells over-expressing hERG potassium channel. The cells were cultured in an incubator at 37° C. 5% CO2. […]
The stably-transformed cells were seeded onto a slide at a cell density of less than 50% and cultured overnight. […] Membrane currents were recorded by using a HEKA EPC-10 patch clamp amplifier and PATCHMASTER acquisition system (HEKA Instruments Inc., D-67466 Lambrecht. Pfalz. Germany) and analyzed and counted by using Origin 8.5 (OriginLab Corporation. Northampton. MA) software and Microsoft Excel (results in Table 4). […]
Channel currents were recorded in the experiments using a whole-cell recording mode. An extracellular fluid (approximately 2 mL per min) was firstly perfused, the process was continuously recorded, and the current was waited for stabilization (current decay (Run-Down) was less than 5% in 5 min); at this point, the tail current peak value was the control current value. Then, the extracellular fluid containing the test drug was perfused, and the process was continuously recorded until the inhibitory effect of the drug on the hERG current reached a stable state; at this point, the tail current peak value was the current value after dosing. […]
A general note: The hERG channel carries a current that helps repolarise heart muscle cells.

Consider `Cn1ccc(-c2cc(C(=O)Nc3ccc(OC(F)(F)Cl)cc3)cnc2N2CCOCC2)cc1=O` [Compound 7], for which the IC50 in the series with K562 cells was found to be 11 nM. Also, in series [1], the GI50 is 16 nM. Also, in series [2], the bioavailability came to 74.1%, the Cmax is 772 ng/mL, the Tmax is 3 h and the half-life was 1.05 h. Besides, in series [2], the AUC(0-t) turned out to be 2850 ng·h/mL and the MRT last was found to be 3.03 h.
`Cn1ccc(-c2cc(C(=O)Nc3ccc(OC(F)(F)Cl)cc3)cnc2N2CCCC2)cc1=O` [Compound 15]: in the series on K562 cells, the IC50 turned out to be 3.1 nM. Moreover, in series [1], the GI50 is 9.6 nM. Further, in series [2], the bioavailability turned out to be 106%, the Cmax was 2330 ng/mL, the Tmax came out at 2 h and the half-life was 2.12 h. Besides, in series [2], the AUC(0-t) was found to be 12300 ng·h/mL and the MRT last is 3.64 h.
For `Cn1ccc(-c2cc(C(=O)Nc3ccc(OC(F)(F)Cl)cc3)cnc2N2CC[C@@H](F)C2)cc1=O` [Compound 16], the IC50 in the series on K562 cells was 2.1 nM. In addition, in series [1], the GI50 came out at 4.7 nM. Moreover, in series [2], the bioavailability was determined as 93.2%, the highest level (Cmax) was 1880 ng/mL, the Tmax was determined as 3 h and the half-life is 1.46 h. Besides, in series [2], the AUC(0-t) was 9690 ng·h/mL and the MRT last stood at 3.33 h.
Turning to `CN(C)c1ncc(C(=O)Nc2ccc(OC(F)(F)Cl)cc2)cc1-c1cc(=O)n(C)cn1` [Compound 61], in the series with K562 cells, the IC50 is 5.6 nM. In addition, in series [1], the GI50 came to 3 nM. In addition, in series [2], the bioavailability is 95.1%, the Cmax worked out at 3200 ng/mL, the Tmax turned out to be 2 h and the half-life is 10.4 h. In series [2], the AUC(0-t) came out at 24100 ng·h/mL and the MRT last was determined as 4.83 h.
Regarding `O=C(Nc1ccc(OC(F)(F)Cl)cc1)c1cnc(N2CCOCC2)c(-c2cc3c([nH]2)C(=O)NC3)c1` [Compound 96], the IC50 in the series with K562 cells worked out at 4.7 nM. Besides, the GI50 in series [1] was found to be 0.59 nM.
The corresponding values for `O=C(Nc1ccc(OC(F)(F)Cl)cc1)c1cnc(N2CCOCC2)c(-c2cc3c([nH]2)C(=O)NCC3)c1` [Compound 97] are 5.7 nM and 2.3 nM.
For `O=C(Nc1ccc(OC(F)(F)Cl)cc1)c1cnc(N2CC(O)C2)c(-c2cc3c([nH]2)C(=O)NCC3)c1` [Compound 98], in that order: 4.7 nM and 3.8 nM.
In the case of `O=C(Nc1ccc(OC(F)(F)Cl)cc1)c1cnc(N2CC[C@@H](O)C2)c(-c2cc3c([nH]2)C(=O)NCC3)c1` [Compound 99], the IC50 in the series on K562 cells was 3.2 nM. The GI50 in series [1] came to 1.4 nM.
In the case of `O=C(Nc1ccc(OC(F)(F)Cl)cc1)c1cnc(N2CC(O)C2)c(-c2cc3c([nH]2)C(=O)NC3)c1` [Compound 104], the IC50 at hERG potassium channel is more than 30000 nM; in the series with K562 cells, 1.2 nM. Further, the GI50 in series [1] is 0.86 nM.
As for `CN(C)c1ncc(C(=O)Nc2ccc(OC(F)(F)Cl)cc2)cc1-c1cc2c([nH]1)C(=O)NC2` [Compound 109], the IC50 with K562 cells was found to be 0.95 nM. For the same molecule, in series [1], the GI50 is 0.27 nM.
The corresponding values for `CNc1ncc(C(=O)Nc2ccc(OC(F)(F)Cl)cc2)cc1-c1cc2c([nH]1)C(=O)NC2` [Compound 110] are 3.1 nM and 0.44 nM.
Turning to `CN1Cc2cc(-c3cc(C(=O)Nc4ccc(OC(F)(F)Cl)cc4)cnc3N3CC[C@@H](O)C3)[nH]c2C1=O` [Compound 111], in the series with K562 cells, the IC50 worked out at 0.5 nM. For the same molecule, the GI50 in series [1] is 0.16 nM.
Consider `CN1Cc2cc(-c3cc(C(=O)Nc4ccc(OC(F)(F)Cl)cc4)cnc3N3CC(O)C3)[nH]c2C1=O` [Compound 112], for which the half-inhibitory concentration (IC50) in the series on K562 cells stood at 0.54 nM. Also, the GI50 in series [1] worked out at 0.29 nM.
Take `O=C(Nc1ccc(OC(F)(F)Cl)cc1)c1cnc(N2CC[C@@H](O)C2)c(-c2cc3c([nH]2)C(=O)N(C2CC2)C3)c1` [Compound 113]: in the series with K562 cells, the IC50 amounted to 0.62 nM. Also, the GI50 in series [1] stood at 0.18 nM.
The corresponding values for `O=C(Nc1ccc(OC(F)(F)Cl)cc1)c1cnc(N2CC(O)C2)c(-c2cc3c([nH]2)C(=O)N(C2CC2)C3)c1` [Compound 114] are 0.56 nM and 0.21 nM.
Take `CN1CCc2cc(-c3cc(C(=O)Nc4ccc(OC(F)(F)Cl)cc4)cnc3N3CCOCC3)[nH]c2C1=O` [Compound 115]: the half-inhibitory concentration (IC50) in the series with K562 cells worked out at 5.5 nM. In series [1], the GI50 was 3 nM.
The corresponding values for `O=C(Nc1ccc(OC(F)(F)Cl)cc1)c1ccc(N2CC[C@@H](O)C2)c(-c2cc3c([nH]2)C(=O)NC3)c1` [Compound 116] are 0.82 nM and 0.12 nM.
As for `O=C(Nc1ccc(OC(F)(F)Cl)cc1)c1ccc(N2CC(O)C2)c(-c2cc3c([nH]2)C(=O)NC3)c1` [Compound 117], the IC50 in the series on K562 cells was determined as 1 nM. Moreover, in series [1], the GI50 worked out at 0.15 nM.
For `O=C(Nc1ccc(OC(F)(F)Cl)cc1)c1ccc(N2CC(O)C2)c(-c2cc3c([nH]2)C(=O)N(C2CC2)C3)c1` [Compound 120], the concentration for half-maximal inhibition (IC50) in the series on K562 cells came to 0.21 nM. In addition, in series [1], the GI50 was 0.084 nM.

As usually defined, the IC50 is the point on the concentration scale where inhibition reaches its midpoint. By Cmax is commonly meant the maximum level reached in the sampled fluid or tissue. The term Tmax denotes the time at which the peak concentration occurs. By half-life is commonly meant the time in which the quantity being followed falls by half. Lower therefore signals fast loss.
